In data set [1] the test system is Haemophilus influenzae ATCC 49247. The data set is described as follows: broth macrodilution volatilization method (liquid and vapor phase MIC). The class given is cell-based. The text has this:
(§1) The following four bacterial standard strains from the American Type Culture Collection (ATCC, Manassas, VA, USA) were used: Haemophilus influenzae ATCC 49247, Staphylococcus aureus ATCC 29213, Streptococcus pneumoniae ATCC 49619, and Streptococcus pyogenes ATCC 19615. Cultivation and assay media (broth/agar) were Mueller–Hinton (MH) complemented by Haemophilus Tested Medium (H. influenzae), MH (S. aureus), and Brain Heart Infusion (S. pneumoniae and S. pyogenes). The pH of the broths was equilibrated to a final value of 7.6 using Trizma base (Sigma-Aldrich, Praha, Czech Republic). […] cultivation media were purchased from Oxoid (Basingstoke, UK).
(§2) Stock cultures of bacterial strains were cultivated in broth medium at 37 °C for 24 h prior to testing. For the preparation of inoculum, the turbidity of the bacterial suspension was adjusted to 0.5 McFarland standard using a Densi-La-Meter II (Lachema, Brno, Czech Republic) to obtain a final concentration of 10^8 CFU/mL.
(§3) The antibacterial potential of volatile plant-derived compounds in the liquid and vapor phases was determined using a newly developed broth macrodilution volatilization method performed in standard 2 mL microtubes with snap caps (Eppendorf, Hamburg, Germany). Initially, each sample of compound was dissolved in DMSO at maximum concentration of 1% and diluted in the appropriate broth medium. […] The concentration of β-thujaplicin started from 1024 µg/mL and from 128 µg/mL for thymohydroquinone and thymoquninone. In the second step, 90 µL of melted agar was pipetted into rims on the caps (Figure 3a) and inoculated with 5 µL of bacterial suspension after agar solidification. Subsequently, the appropriate concentrations of each sample previously prepared in test tubes were pipetted into microtubes in a final volume of 1500 µL. Then, the microtubes were inoculated with 10 µL of bacterial suspension and closed properly (Figure 3b). Microtubes containing inoculated and non-inoculated media were prepared as growth and purity controls simultaneously. After incubation at 37 °C for 24 h, the MICs were evaluated by the visual assessment of bacterial growth after coloring metabolically active bacterial colonies with MTT dye. The respective volumes of 30 and 375 µL of MTT at a concentration of 600 µg/mL were pipetted into the caps and in the microtubes when the interface of color change from yellow to purple (relative to that of colors in control wells) was recorded in broth and agar (Figure 3c). […] The MIC values were determined as the lowest concentrations that inhibited bacterial growth compared with the compound-free control and are expressed in µg/mL. In the case of the vapor phase, the concentration was also expressed in µg/cm^3 as the weight of the volatile agent per volume unit of a microtube. […] The respective susceptibilities of H. influenzae, S. aureus, S. pneumoniae, and S. pyogenes to ampicillin, oxacillin, amoxicillin, and tetracycline were checked as positive antibiotic controls. All tests were performed as three independent experiments, each carried out in triplicate, and the results were presented as median/modal values. According to the widely accepted norm in MIC testing, the mode and median were used for the final value calculation when triplicate endpoints were within the two- and three-dilution ranges, respectively.

In data set [2] the test system is Streptococcus pyogenes ATCC 19615. Described as above. The class given is cell-based. As to conditions: for MIC: Streptococcus pyogenes, ATCC19615.
Source text: as §1, §2, §3

Data set [3] concerns Staphylococcus aureus ATCC 29213. Described as above. The class given is cell-based.
Source text: as §1, §2, §3

Data set [4] relates to Streptococcus pneumoniae ATCC 49619. The data set is described as above. The class given is cell-based. As to conditions: for MIC: Streptococcus pneumoniae, ATCC49619.
Source text: as §1, §2, §3

Data set [5] relates to respiratory pathogens. The data set is described as follows: broth macrodilution volatilization method, all four bacteria together. The class given is cell-based. As to conditions: mean value of minimal inhibitory concentrations in broth medium.
Source text: as §1, §2
The antibacterial potential of volatile plant-derived compounds in the liquid and vapor phases was determined using a newly developed broth macrodilution volatilization method performed in standard 2 mL microtubes with snap caps (Eppendorf, Hamburg, Germany). Initially, each sample of compound was dissolved in DMSO at maximum concentration of 1% and diluted in the appropriate broth medium. […] After incubation at 37 °C for 24 h, the MICs were evaluated by the visual assessment of bacterial growth after coloring metabolically active bacterial colonies with MTT dye. The respective volumes of 30 and 375 µL of MTT at a concentration of 600 µg/mL were pipetted into the caps and in the microtubes when the interface of color change from yellow to purple (relative to that of colors in control wells) was recorded in broth and agar (Figure 3c). […] The MIC values were determined as the lowest concentrations that inhibited bacterial growth compared with the compound-free control and are expressed in µg/mL. […]

Data set [6] relates to S. pyogenes. Also on record: method as in PMID 31106894. As to conditions: cited from earlier work.
The test system of data set [7] is S. pneumoniae. Also on record: method as in PMID 31106894. As to conditions: cited from earlier work.
Data set [8] relates to S. aureus. As to conditions: various strains of S. aureus; cited from earlier work.
For data set [9], the system named is oral microorganisms. Also on record: method as in PMID 27681039. As to conditions: disc volatilization method; cited from earlier work.
In data set [10] the test system is human lung cancer tissues. Further details: method as in PMID 25105411, doi:10.1177/1934578X1801301223, doi:10.15324/kjcls.2019.51.2.221. As to conditions: various types of human lung cancer tissues; cited from earlier work.
Data set [11] can be described thus: modified MTT cytotoxicity assay. As to conditions: human. How it is done:
(§4) Lung fibroblast cell line MRC-5, obtained from ATCC, was propagated in Eagle’s Minimum Essential Medium (EMEM) supplemented with 10% fetal bovine serum (FBS), 2 mM glutamine, 10 µL/mL non-essential amino acids, and 1% penicillin–streptomycin solution (10,000 units/mL of penicillin and 10 mg/mL of streptomycin); all these components were purchased from Sigma-Aldrich. The cells were pre-incubated in 96-well microtiter plates at a density of 2.5 × 10^3 cells per well for 24 h at 37 °C in a humidified incubator in an atmosphere of 5% CO2 in air.
(§5) A modified method based on the metabolization of MTT to blue formazan by mitochondrial dehydrogenases in living lung cells previously described by Mosmann was used. The lung fibroblast cells were treated for 72 h with the tested compounds dissolved in DMSO at a maximum concentration of 1% and diluted in the EMEM medium supplemented with 10% FBS. Twelve two-fold serially diluted concentrations of these agents ranging from 512 to 0.25 µg/mL were prepared. The microtiter plates were covered with EVA capmats^TM at 37 °C in a humidified atmosphere of 5% CO2 in air and cultivated for 72 h. Thereafter, MTT reagent (1 mg/mL) in EMEM solution was added to each well and the plates were incubated for an additional 2 h at 37 °C in a humidified atmosphere of 5% CO2 in air. The media were removed, and the intracellular formazan product was dissolved in 100 µL of DMSO. […] The absorbance was measured at 555 nm using a Tecan Infinite M200 spectrometer (Tecan Group, Mannedorf, Switzerland), and the viability was calculated in comparison to that of the untreated control. Three independent experiments (two replicates each) were performed for each test. […] Furthermore, IC80 was calculated as equivalent to the MIC endpoint for comparison of microbiological and toxicological data. Therapeutic indices (TIs) were defined as the ratio of x¯ -IC80 and x¯ -MIC values with the aim of determining the amount of effective antibacterial agents with the quantity causing toxicity.

The subject of data set [12] is normal lung fibroblast cells MRC-5. The data set is described as follows: modified MTT cytotoxicity assay. How it is done:
as §4, §5

Setting [13] is: liquid phase, 37 °C, 24 h, read-out: Minimal Inhibitory Concentration, Broth.
The mark [14] stands for this setting: vapor phase, 37 °C, 24 h, read-out: Minimal Inhibitory Concentration, Agar.
Where [15] appears, read: vapor phase, weight of volatile agent per volume unit of microtube, read-out: Minimal Inhibitory Concentration, Agar.

Values after ≈ are worked out from the molar mass of the structure shown. Like-named read-outs stand apart in the source and are kept apart here.

For orientation: IC50 means the concentration needed to halve the response being measured. Usually IC80 stands for the point of the concentration-response curve where the effect stands at 80%. The low end stands for greater potency, the high end for weaker potency. `CC(C)c1cccc(=O)c(O)c1` [β-thujaplicin]: the MIC is 64 µg/mL (≈ 390 µM) in data set [1] (ATCC49247, liquid phase, 37 °C, 24 h, read-out: Minimal Inhibitory Concentration, Broth); 512 µg/mL (≈ 3120 µM) in data set [1] (ATCC49247, vapor phase, 37 °C, 24 h, read-out: Minimal Inhibitory Concentration, Agar); 320 µg/mL (≈ 1950 µM) in [1] (ATCC49247, vapor phase, weight of volatile agent per volume unit of microtube, read-out: Minimal Inhibitory Concentration, Agar); 64 µg/mL (≈ 390 µM) in [2] (setting [13]); 1020 µg/mL (≈ 6240 µM) in data set [2] (setting [14]); 640 µg/mL (≈ 3900 µM) in data set [2] (setting [15]). Also, the MIC was 64 µg/mL (≈ 390 µM) in data set [3] (ATCC29213, liquid phase, 37 °C, 24 h, read-out: Minimal Inhibitory Concentration, Broth); 512 µg/mL (≈ 3120 µM) in data set [3] (ATCC29213, vapor phase, 37 °C, 24 h, read-out: Minimal Inhibitory Concentration, Agar); 320 µg/mL (≈ 1950 µM) in [3] (ATCC29213, vapor phase, weight of volatile agent per volume unit of microtube, read-out: Minimal Inhibitory Concentration, Agar); 64 µg/mL (≈ 390 µM) in data set [4] (setting [13]); 1020 µg/mL (≈ 6240 µM) in data set [4] (setting [14]); 640 µg/mL (≈ 3900 µM) in [4] (setting [15]). Moreover, the MIC in data set [6] is 0.3 to 1 µg/mL; in data set [7], 0.3 to 1 µg/mL; in [8], 12.5 to 160 µg/mL. Further, the “Minimal Inhibitory Concentration, Agar” value is reported as “low antibacterial efficacy” in data set [2] (vapor phase, 37 °C, 24 h) and “low antibacterial efficacy” in data set [4] (vapor phase, 37 °C, 24 h). In data set [5], this molecule returned a x¯ -MIC of 64 µg/mL. For the same molecule, the “growth-inhibitory effect in the gaseous phase” value in data set [9] is “certain level of growth-inhibitory effect”. Also, the IC50 is 0.26 to 12.32 µg/mL in data set [10] and 4.15 ± 0.45 µg/mL (≈ 25.3 µM) in data set [12] (Homo sapiens, MRC5, 72 h, read-out: IC50 ± SD). In addition, the 80% effect level in data set [11] (IC80 at 72 h) was put at 215 ± 9.71 µg/mL (≈ 1310 µM). Further, the “level of cytotoxic effect (WHO classification)” value in data set [12] (classified by IC50 in lung fibroblast cells) was “moderate toxicity”. The TI in [12] (therapeutic index, TI = IC80/x¯ -MIC) is listed as 3.36.

The values above are taken from PMC8305236, “New Broth Macrodilution Volatilization Method for Antibacterial Susceptibility Testing of Volatile Agents and Evaluation of Their Toxicity Using Modified MTT Assay In Vitro” (Molecules, 2021).
